# According to article PMC7260336, “Identification of a species-specific aminotransferase in Pediococcus acidilactici capable of forming α-aminobutyrate” (AMB Express, 2020):
# Assays:
# [1] = target: T1, Aat (recombinant His-tagged aminotransferase) (Pediococcus acidilactici, UniProt E0NE36); test: HPLC of amino acids formed; format: biochemical; settings: amino acceptor; leucine, AABA or alanine as amino donor, 50 uM pyridoxal 5-phosphate, pH 5.5, 37 °C, 1 h
# T1 construct: gene aspC; full length, C-terminal His tag (pEXP5-CT/TOPO), E. coli BL21(DE3), Ni-TED purified; gene about 1200 bp; cloning primers translate to N-terminus MSDKVNA and native C-terminus LKAKRA; locus tag contradictory: primers designed for GBO44_RS03485 in Methods, GBO44_RS04865 in Results
# T1 sequence (E0NE36 1-394): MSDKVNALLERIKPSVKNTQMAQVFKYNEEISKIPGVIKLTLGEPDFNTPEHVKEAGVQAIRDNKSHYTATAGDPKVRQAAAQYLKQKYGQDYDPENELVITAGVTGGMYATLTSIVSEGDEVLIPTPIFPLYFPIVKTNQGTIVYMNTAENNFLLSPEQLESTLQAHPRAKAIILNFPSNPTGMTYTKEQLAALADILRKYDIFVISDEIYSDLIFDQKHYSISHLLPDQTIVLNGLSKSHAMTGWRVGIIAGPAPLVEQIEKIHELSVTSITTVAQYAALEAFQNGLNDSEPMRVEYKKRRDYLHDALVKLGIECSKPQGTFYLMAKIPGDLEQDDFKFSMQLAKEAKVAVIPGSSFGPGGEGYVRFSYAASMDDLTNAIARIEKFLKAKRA
# [2] = target: T1, Aat (recombinant His-tagged aminotransferase); test: coupled assay, glutamate formed measured with glutamate dehydrogenase/diaphorase; format: biochemical; settings: amino donor; 5 mM amino acid, 10 mM alpha-ketoglutarate, 50 uM pyridoxal 5-phosphate, pH 5.5, 37 °C
SMILES,HPLC of amino acids formed [1],"coupled assay, glutamate formed measured with glutamate dehydrogenase/diaphorase [2]"
"CCC(=O)C(=O)O [AKB, α-ketobutyrate]","AKB, pyruvate, KMTB, KIC, and PPA significantly preferred amino group acceptors to AKG",
"CC(C)C[C@H](N)C(=O)O [Leu, L-leucine]",,"the enzyme transferred the amino group from leucine, methionine, AABA, alanine, cysteine, and phenylalanine"
